Measured values: EPA's ToxRefDB 2

What was measured:
dog [1] = conditions: Chronic toxicity, beagle, Oral, Feed, dose end: 52 week, group: systemic
rat [2] = conditions: Subchronic oral toxicity in rodents, sprague dawley, Feed, dose end: 90 day, group: systemic, systemic / clinical chemistry / cytochrome p450, nos / cytochrome p450, nos + systemic / in life observation / body weight / body weight …
mouse [3] = conditions: Subchronic oral toxicity in rodents, cd1, Feed, dose end: 90 day, group: systemic, systemic / organ weight / liver / absolute + systemic / organ weight / liver / relative to body weight + systemic / organ weight / liver / …
rat [4] = conditions: Combined chronic toxicity/carcinogenicity, sprague dawley, Oral, Feed, dose end: 23 month, group: systemic
rabbit = conditions: Prenatal developmental toxicity study, other, Oral, Gavage/Intubation, dose end: 19 GD
mouse [5] = conditions: Carcinogenicity, cd1, Oral, Feed, dose end: 18 month, group: systemic
dog [6] = conditions: Subchronic oral toxicity in nonrodent, beagle, Feed, dose end: 90 day, group: systemic, systemic / hematology / erythrocyte (rbc) count differential / erythrocyte (rbc) + systemic / hematology / hematocrit (hct) / hematocrit (…
rat [7] = conditions: Multigenerational reproductive toxicity study, other, Oral, Feed, dose end: 2 generation
rat [8] = conditions: Prenatal developmental toxicity study, sprague dawley, Oral, Gavage/Intubation, dose end: 16 GD
[9] = systemic / in life observation / body weight / body weight gain + systemic / organ weight / thyroid gland / absolute + systemic / organ …
[10] = systemic / in life observation / clinical signs / salivation
[11] = systemic / hematology / erythrocyte (rbc) count differential / erythrocyte (rbc) + systemic / hematology / hematocrit (hct) / hematocrit (…
[12] = group: developmental, systemic / in life observation / body weight / fetal weight
[13] = group: maternal, reproductive / reproductive performance / resorptions / resorptions + systemic / in life observation / body weight / body weight gain + …
[14] = systemic / pathology microscopic / liver / adenoma
[15] = systemic / pathology microscopic / liver / adenoma + systemic / hematology / platelet / platelet + systemic / in life observation / body …
[16] = group: offspring, systemic / in life observation / body weight / offspring (pup) weight + systemic / in life observation / body weight / offspring (pup) …
[17] = group: parental, systemic / in life observation / body weight / body weight + systemic / in life observation / body weight / body weight gain + systemic / in…
[18] = group: developmental, developmental / developmental malformation / bone / delayed ossification + developmental / developmental malformation / bone / short
[19] = group: maternal, systemic / in life observation / clinical signs / salivation
[20] = group: maternal, systemic / in life observation / clinical signs / salivation + systemic / in life observation / body weight / body weight gain + systemic / …

`COc1cc(OC)nc(Sc2cccc(Cl)c2C(=O)[O-])n1.[Na+]` [Pyrithiobac-sodium] gave an LOAEL (dog [1]; [9]) of 580 mg/kg/day, an NOAEL (dog [1]; [9]) of 143 mg/kg/day and an LEL (dog [1]; [10]) of 2.8 mg/kg/day. For the same compound, the NEL (dog [1]; [10]) was < 2.8 mg/kg/day, the LEL (rat [2]) was 31.8 mg/kg/day and the LOAEL (rat [2]) was 31.8 mg/kg/day. It also gave an NEL (rat [2]) of 3.25 mg/kg/day, an NOAEL (rat [2]) of 3.25 mg/kg/day and an LEL (mouse [3]) of 263 mg/kg/day. The LOAEL (mouse [3]) was 263 mg/kg/day, the NEL (mouse [3]) was 83.1 mg/kg/day and the NOAEL (mouse [3]) was 83.1 mg/kg/day. It also gave an LEL (rat [4]; systemic / clinical chemistry / sodium / sodium) of 1.36 mg/kg/day, an NEL (rat [4]; systemic / clinical chemistry / sodium / sodium + systemic / pathology microscopic / kidney / adenoma + systemic / in life observation / …) of 0.274 mg/kg/day and an LOAEL (rat [4]; [11]) of 200 mg/kg/day. It also gave an NOAEL (rat [4]; [11]) of 58.7 mg/kg/day, an LEL (rabbit; [12]) of 1000 mg/kg/day and an LOAEL (rabbit; [12]) of 1000 mg/kg/day. The NEL (rabbit; [12]) was 300 mg/kg/day, the NOAEL (rabbit; [12]) was 300 mg/kg/day and the LEL (rabbit; [13]) was 1000 mg/kg/day. The LOAEL (rabbit; [13]) was 1000 mg/kg/day, the NEL (rabbit; [13]) was 300 mg/kg/day and the NOAEL (rabbit; [13]) was 300 mg/kg/day. The LEL (mouse [5]; [14]) was 21.4 mg/kg/day, the LOAEL (mouse [5]; [14]) was 21.4 mg/kg/day and the NEL (mouse [5]; [15]) was 1.43 mg/kg/day. For the same compound, the NOAEL (mouse [5]; [15]) was 1.43 mg/kg/day, the LEL (dog [6]) was 626 mg/kg/day and the LOAEL (dog [6]) was 626 mg/kg/day. It also gave an NEL (dog [6]) of 165 mg/kg/day, an NOAEL (dog [6]) of 165 mg/kg/day and an LOAEL (rat [7]; group: offspring, systemic / in life observation / body weight / offspring (pup) weight) of 614 mg/kg/day. The LEL (rat [7]; [16]) was 614 mg/kg/day, the NEL (rat [7]; [16]) was 119 mg/kg/day and the NOAEL (rat [7]; [16]) was 119 mg/kg/day. For the same compound, the LOAEL (rat [7]; [17]) was 439 mg/kg/day, the NOAEL (rat [7]; [17]) was 85.6 mg/kg/day and the LEL (rat [7]; group: parental, systemic / in life observation / food consumption / food efficiency) was 119 mg/kg/day. For the same compound, the NEL (rat [7]; group: parental, systemic / in life observation / food consumption / food efficiency + systemic / in life observation / body weight / body weight + systemic…) was 1.93 mg/kg/day, the LEL (rat [8]; [18]) was 1800 mg/kg/day and the LOAEL (rat [8]; [18]) was 1800 mg/kg/day. The NEL (rat [8]; [18]) was 600 mg/kg/day, the NOAEL (rat [8]; [18]) was 600 mg/kg/day and the LEL (rat [8]; [19]) was 200 mg/kg/day. For the same compound, the LOAEL (rat [8]; [19]) was 200 mg/kg/day, the NEL (rat [8]; [20]) was 30 mg/kg/day and the NOAEL (rat [8]; [20]) was 30 mg/kg/day.
